Test results reported in patent publication US20250170100A1, “MONOACYLGLYCEROL LIPASE INHIBITORS AND USE THEREOF FOR THE TREATMENT OF ANXIETY AND RELATED CONDITIONS” (Psy Therapeutics, Inc., priority 2021, published 2025).

Biological target: T1, human MAGL (Homo sapiens (Human), UniProt Q99685)
Assay: MAGL inhibition potency assay with 4NPA substrate (methods of Table C)
Type: biochemical
Conditions: Method 1: Reaction Biology MAGL enzyme, 6 nM; read-out: MAGL Potency (Detection Method)
Excerpt: Cayman's Monoacylglycerol Lipase Inhibitor Screening Assay provides a method for screening human MAGL inhibitors. MAGL hydrolyzes 4-nitrophenylacetate resulting in a yellow product, 4-nitrophenol, with an absorbance of 405-412 nm. The monoacylglycerol lipase inhibitor screening assay kit from Cayman Chemical was used to measure the MAGL potency for the compounds in Table 3 and Table 4. Cayman's Monoacylglycerol Lipase Inhibitor Screening Assay provides a method for screening human MAGL inhibitors. MAGL hydrolyzes 4-nitrophenylacetate resulting in a yellow product, 4-nitrophenol, with an absorbance of 405-412 nm. MAGL Inhibition was measured by the following assay. Monoacylglycerol Lipase (MAGL) inhibition was measured using recombinant MAGL enzyme (aa 2-303 RBC, internal preparation) and the substrate 4-Nitrophenyl acetate (4NPA) (Sigma-Aldrich, N8130). Hydrolysis of the substrate in the presence of the enzyme was measured by absorbance at 405 nm. 10 μL of assay buffer (10 mM Tris pH 7.5, 1 mM EDTA, 0.9% DMSO) was added to a black 384-well non-binding plate with clear bottom (Greiner, 781906) for each reaction. […] DMSO control wells were included for reference. A 10.8 nM (1.8×) MAGL mix in assay buffer was prepared, with […] added to each reaction well, for a final assay concentration of 6 nM. No enzyme wells received 25 μL of buffer. Plate was incubated at room temperature for 30 minutes. 35 mM solution of 4NPA in methanol was prepared daily. A 4.5×4NPA substrate solution was prepared in assay buffer and 10 μL was added to each reaction well, for a final assay concentration of 0.25 mM. Plate was spun for 1 minute at 1000 rpm before measuring absorbance using a CLARIOstar plate reader (BMG Labtech). A kinetic reading at 405 nm was done every minute for 30 minutes. Data was analyzed using the linear slope of the reaction progress curve and the average of the no-enzyme wells (background) was subtracted from the data. The background-subtracted slope data was converted to % activity using the average of wells with enzyme and DMSO vehicle. IC50s were calculated using GraphPad software (Sigmoidal dose response, variable slope equation). […] Table 5 provides potency measurements of MAGL inhibition measured using the Potency Assay of Example 18 above, with the following modifications described in Table C. [table]

T1 sequence (Q99685 2-303): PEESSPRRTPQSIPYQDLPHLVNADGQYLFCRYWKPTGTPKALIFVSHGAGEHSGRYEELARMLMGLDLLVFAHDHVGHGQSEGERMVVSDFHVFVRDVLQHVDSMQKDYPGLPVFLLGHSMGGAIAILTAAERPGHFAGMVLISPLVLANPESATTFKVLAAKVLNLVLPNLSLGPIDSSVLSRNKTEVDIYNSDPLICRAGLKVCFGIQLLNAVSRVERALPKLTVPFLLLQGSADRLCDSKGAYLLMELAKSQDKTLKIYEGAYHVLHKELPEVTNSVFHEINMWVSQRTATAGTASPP

IC50	SMILES
< 0.05 µM	Cc1cc(C2CC3(C2)CN(C(=O)c2cc(O)c(F)cc2F)C3)n(-c2ccccc2C)n1 [Compound 126, (2,4-difluoro-5-hydroxyphenyl) (6-(3-methyl-1-(o-tolyl)-1H-pyrazol-5-yl)-2-azaspiro[3.3]heptan-2-yl) methanone]
< 0.05 µM	Cc1cc(C2CC3(C2)CN(C(=O)c2cc(O)ccc2C#N)C3)n(-c2ccccc2C)n1 [Compound 128, 4-hydroxy-2-({6-[3-methyl-1-(o-tolyl)-5-pyrazolyl]-2-aza-2-spiro[3.3]heptyl}carbonyl)benzonitrile]

Same assay, conditions: Method 6: Reaction Biology MAGL enzyme, 6 nM; read-out: Potency (MAGL inhibition)

IC50	SMILES
> 10 µM	Cc1cnn(C2CC3(C2)CN(C(=O)c2cc(O)ccc2F)C3)c1-c1ccccc1Cl [Compound 404]
> 10 µM	Cc1cc(-c2ccccc2C)n(C2CC3(C2)CN(C(=O)c2cc(O)ccc2F)C3)n1 [Compound 406]
> 10 µM	O=C(c1ccc(F)cc1OC1CC1)N1CC2(CC(n3nc(C(F)(F)F)cc3-c3ccccc3C(F)(F)F)C2)C1 [Compound 424, (2-cyclopropoxy-4-fluorophenyl) (6-(3-(trifluoromethyl)-5-(2-(trifluoromethyl)phenyl)-1H-pyrazol-1-yl)-2-azaspiro[3.3]heptan-2-yl) methanone]
> 10 µM	Cc1cn(C2CC3(C2)CN(C(=O)c2cc(O)ccc2F)C3)nc1-c1ccccc1Cl [Compound 416]
> 10 µM	Cc1ccccc1-c1cc(C)n(C2CC3(C2)CN(C(=O)c2cc(O)ccc2F)C3)n1 [Compound 442]
> 10 µM	Cc1ccccc1-c1ccn(C2CC3(C2)CN(C(=O)c2cc(O)ccc2F)C3)n1 [Compound 441]
> 10 µM	O=C(c1cc(O)ccc1F)N1CC2(CC(n3cc(C4CC4)c(-c4ccccc4Cl)n3)C2)C1 [Compound 445]
> 10 µM	Cc1ccccc1-c1c(C)cnn1C1CC2(C1)CN(C(=O)c1cc(O)ccc1F)C2 [Compound 405]

Same assay, conditions: Method 14: Reaction Biology MAGL enzyme, 6 nM; read-out: MAGL Potency (Detection Method)

IC50	SMILES
< 0.05 µM	Cc1cc(C2CC3(C2)CN(C(=O)c2cc(O)ccc2F)C3)n(-c2ccccc2C(F)(F)F)n1 [Compound 366, (2-fluoro-5-hydroxyphenyl) (6-{3-methyl-1-[o-(trifluoromethyl)phenyl]-5-pyrazolyl}-2-aza-2-spiro[3.3]heptyl) methanone]
< 0.05 µM	Cc1cc(C2CC3(C2)CN(C(=O)c2cc(O)ccc2F)C3)n(-c2cc(F)ccc2C)n1 [Compound 365, (2-fluoro-5-hydroxyphenyl) {6-[1-(5-fluoro-2-tolyl)-3-methyl-5-pyrazolyl]-2-aza-2-spiro[3.3]heptyl}methanone]
0.05 to 0.15 µM	Cc1ccccc1-n1nccc1C1CC2(C1)CN(C(=O)c1cc(O)ccc1F)C2 [Compound 367, (2-fluoro-5-hydroxyphenyl) (6-(1-(o-tolyl)-1H-pyrazol-5-yl)-2-azaspiro [3.3]heptan-2-yl) methanone]

Same assay, conditions: Method 14: Reaction Biology MAGL enzyme, 6 nM; read-out: Potency (MAGL inhibition)

IC50	SMILES
> 10 µM	O=C(c1cc(O)ccc1F)N1CC2(CC(C(=O)N3CCCC3)C2)C1 [Compound 388]
> 10 µM	Cc1cc(C2CC3(C2)CN(C(=O)c2cccc4c2CCO4)C3)n(-c2ccccc2C)n1 [Compound 403]
> 10 µM	Cc1cc(C2CC3(C2)CN(C(=O)c2cc4c(cc2F)CCO4)C3)n(-c2ccccc2C)n1 [Compound 368]
> 10 µM	O=C(c1cc(O)ccc1F)N1CC2(CC(C(=O)N3CCOCC3)C2)C1 [Compound 384]
> 10 µM	Cc1cc(C2CC3(C2)CN(C(=O)c2ccc4c(c2)OCC4)C3)n(-c2ccccc2C)n1 [Compound 402]
> 10 µM	O=C(c1cc(O)ccc1F)N1CC2(CC(C(=O)N3CCC4(COC4)C3)C2)C1 [Compound 391]
> 10 µM	O=C(NCC1COC1)C1CC2(C1)CN(C(=O)c1cc(O)ccc1F)C2 [Compound 395]
> 10 µM	O=C(c1cc(O)ccc1F)N1CC2(CC(C(=O)N3CCC4(CCCO4)C3)C2)C1 (stereo not drawn) [Compound 400]

Same assay, conditions: read-out: Potency (MAGL inhibition)

IC50	SMILES
> 10 µM	Cc1cc(C2CC3(C2)CN(Cc2cc(O)ccc2F)C3)n(-c2ccccc2C)n1 [Compound 150, 4-fluoro-3-((6-(3-methyl-1-(o-tolyl)-1H-pyrazol-5-yl)-2-azaspiro[3.3]heptan-2-yl)methyl) phenol]

Biological target: T1, human MAGL
Assay: as above
Type: biochemical
Conditions: Method 2: Cayman Chemical MAGL enzyme, 10 nM; read-out: MAGL Potency (Detection Method)

IC50	SMILES
< 0.05 µM	Cc1cc(C2CC3(C2)CN(C(=O)c2cc(O)c(F)cc2F)C3)n(-c2ccccc2C)n1 [Compound 126, (2,4-difluoro-5-hydroxyphenyl) (6-(3-methyl-1-(o-tolyl)-1H-pyrazol-5-yl)-2-azaspiro[3.3]heptan-2-yl) methanone]
< 0.05 µM	Cc1cc(C2CC3(C2)CN(C(=O)c2cc(O)ccc2C#N)C3)n(-c2ccccc2C)n1 [Compound 128, 4-hydroxy-2-({6-[3-methyl-1-(o-tolyl)-5-pyrazolyl]-2-aza-2-spiro[3.3]heptyl}carbonyl)benzonitrile]
< 0.05 µM	Cc1cc(C2CC3(C2)CN(C(=O)c2ccc(F)cc2OCC(F)(F)F)C3)n(-c2ccccc2C)n1 [Compound 178, [4-fluoro-2-(2,2,2-trifluoroethoxy)phenyl]{6-[3-methyl-1-(o-tolyl)-5-pyrazolyl]-2-aza-2-spiro[3.3]heptyl}methanone]

Same assay, conditions: Method 2: Cayman Chemical MAGL enzyme, 10 nM; read-out: Potency (MAGL inhibition)

IC50	SMILES
> 10 µM	Cc1cc(C2CC3(C2)CN([C@H]2COc4ccccc42)C3)n(-c2ccccc2C)n1 [Compound 154]
> 10 µM	Cc1cc(C2CC3(C2)CN(C(=O)c2cccn2C)C3)n(-c2ccccc2C)n1 [Compound 181]
> 10 µM	Cc1cc(C2CC3(C2)CN([C@@H]2COc4ccccc42)C3)n(-c2ccccc2C)n1 [Compound 155]
> 10 µM	Cc1cc(C2CC3(C2)CN([C@@H]2CCOc4ccccc42)C3)n(-c2ccccc2C)n1 [Compound 153]
> 10 µM	CCOc1cc(F)ccc1C(=O)N1CC2(CC(C(=O)Nc3ccccc3C)C2)C1 [Compound 188]
> 10 µM	Cc1cc(C2CC3(C2)CN(C2CCOc4ccccc42)C3)n(-c2ccccc2C)n1 (stereo not drawn) [Compound 152]
> 10 µM	Cc1cc(C2CC3(C2)CN(C(=O)c2ccoc2)C3)n(-c2ccccc2C)n1 [Compound 179]
> 10 µM	COc1cc(F)ccc1C(=O)N1CC2(CC(c3cc(C)nn3-c3ccccc3C)C2)C1 [Compound 149]
> 10 µM	Cc1cc(C2CC3(C2)CN(C(=N)c2cc(O)ccc2F)C3)n(-c2ccccc2C)n1 [Compound 144]
> 10 µM	Cc1cc(C2CC3(C2)CN(C(=O)c2cc[nH]c2)C3)n(-c2ccccc2C)n1 [Compound 184]
> 10 µM	Cc1cc(C2CC3(C2)CN(C(=O)c2ccc[nH]2)C3)n(-c2ccccc2C)n1 [Compound 183]
> 10 µM	Cc1cc(C2CC3(C2)CN(C(=O)c2ccn(C)c2)C3)n(-c2ccccc2C)n1 [Compound 182]

Same assay, conditions: Method 3: Reaction Biology MAGL enzyme, 10 nM; read-out: MAGL Potency (Detection Method)

IC50	SMILES
< 0.05 µM	Cc1cc(C2CC3(C2)CN(C(=O)c2cc(O)c(F)cc2F)C3)n(-c2ccccc2C)n1 [Compound 126, (2,4-difluoro-5-hydroxyphenyl) (6-(3-methyl-1-(o-tolyl)-1H-pyrazol-5-yl)-2-azaspiro[3.3]heptan-2-yl) methanone]
< 0.05 µM	Cc1cc(C2CC3(C2)CN(C(=O)c2ccc(F)cc2OCC(F)(F)F)C3)n(-c2ccccc2C)n1 [Compound 178, [4-fluoro-2-(2,2,2-trifluoroethoxy)phenyl]{6-[3-methyl-1-(o-tolyl)-5-pyrazolyl]-2-aza-2-spiro[3.3]heptyl}methanone]

Same assay, conditions: Method 4: Cayman Chemical MAGL enzyme, 15 nM; read-out: Potency (MAGL inhibition)

IC50	SMILES
> 10 µM	CCOc1cc(F)ccc1C(=O)N1CC2(CC(C(=O)N(C)c3cccnc3C)C2)C1 [Compound 198]

Same assay, conditions: Method 5: Cayman Chemical MAGL enzyme, 25 nM; read-out: MAGL Potency (Detection Method)

IC50	SMILES
< 0.05 µM	Cc1cc(C2CC3(C2)CN(C(=O)c2ccc(F)cc2OCC(F)(F)F)C3)n(-c2ccccc2C)n1 [Compound 178, [4-fluoro-2-(2,2,2-trifluoroethoxy)phenyl]{6-[3-methyl-1-(o-tolyl)-5-pyrazolyl]-2-aza-2-spiro[3.3]heptyl}methanone]

Same assay, conditions: Method 11: Reaction Biology MAGL enzyme, Conc 20 (text: 25 nM); read-out: Potency (MAGL inhibition)

IC50	SMILES
> 10 µM	Cc1cc(-c2cc(F)ccc2C)n(C2CC3(C2)CN(C(=O)c2ccc(F)cc2OC(F)(F)F)C3)n1 [Compound 427]

Same assay, conditions: Method 12: Reaction Biology MAGL enzyme, 15 nM; read-out: Potency (MAGL inhibition)

IC50	SMILES
> 10 µM	Cc1cnn(C2CC3(C2)CN(C(=O)c2cc(O)ccc2F)C3)c1-c1ccccc1F [Compound 494]
> 10 µM	Cc1cn(C2CC3(C2)CN(C(=O)c2cc(O)ccc2C(F)(F)F)C3)nc1-c1ccccc1F [Compound 495]
> 10 µM	O=C(c1c(F)cccc1OC1CC1)N1CC2(CC(n3ncc(C(F)(F)F)c3-c3ccccc3F)C2)C1 [Compound 521]
